For 22 compounds, IC50 results are on record in ChEMBL document CHEMBL2434906, “Synthesis, characterization, and anticancer studies of S and N alkyl piperazine-substituted positional isomers of 1,2,4-triazole derivatives” (Med Chem Res, 2013).

Holding throughout (format): functional, cell-based
The test system of assay [1] is HL-60. Put plainly: Cytotoxicity against human HL60 cells after 24 hrs by MTT assay. Particulars: HL-60, 24 h.
Assay [2] relates to MCF7. The experiment in a line: Cytotoxicity against human MCF7 cells after 24 hrs by MTT assay. Particulars: MCF7, 24 h. On the technique in general: Formazan colour is commonly taken as a measure of viable cells.
Assay [3] deals with COLO 205. Put plainly: Cytotoxicity against human COLO205 cells after 24 hrs by MTT assay. Particulars: COLO 205, 24 h.
Assay [4] has as its system THP-1. Put plainly: Cytotoxicity against human THP1 cells after 24 hrs by MTT assay. The settings on record: THP-1, 24 h.
Assay [5] concerns U-937. Put plainly: Cytotoxicity against human U937 cells after 24 hrs by MTT assay. Particulars: U-937, 24 h.

Some results are limits rather than exact numbers.

By IC50 is commonly meant the concentration needed to halve the response being measured. Consider `CC(C)(C)c1ccc(-c2nn(CCCN3CCN(c4cccc(Cl)c4)CC3)c(=S)[nH]2)cc1`, for which the IC50 in assay [1], in assay [2], in assay [3], in assay [4] and in assay [5] was above 300 µM in each case.

On to `Cc1ccc(-c2nn(CCCN3CCN(c4cccc(Cl)c4)CC3)c(=S)[nH]2)cc1`, for which the IC50 in assay [1], in assay [2], in assay [3], in assay [4] and in assay [5] was above 300 µM in each case.

For the compound `COc1ccc(-c2nn(CCCN3CCOCC3)c(=S)[nH]2)cc1OC`, the half-maximal inhibitory concentration (IC50) in assay [1], in assay [2], in assay [3], in assay [4] and in assay [5] was above 300 µM each time.

For `CCN1CCN(CCCn2nc(-c3ccc(OC)c(OC)c3)[nH]c2=S)CC1`, the concentration for half-maximal inhibition (IC50) in assay [1], in assay [2], in assay [3], in assay [4] and in assay [5] was above 300 µM each time.

With `CCN1CCN(CCCSc2nnc(-c3ccc(C)cc3)[nH]2)CC1`, the IC50 in assay [1], in assay [2], in assay [3], in assay [4] and in assay [5] was above 300 µM each time.

For `Clc1ccc(-c2nnc(SCCCN3CCN(c4cccc(Cl)c4)CC3)[nH]2)cc1`, the IC50 in assay [1], in assay [2], in assay [3], in assay [4] and in assay [5] was above 300 µM each time.

On to `CCN1CCN(CCCSc2nnc(-c3ccccc3Cl)[nH]2)CC1`, for which the IC50 in assay [1], in assay [2], in assay [3], in assay [4] and in assay [5] was above 300 µM each time.

As for `Clc1ccccc1-c1nnc(SCCCN2CCN(c3ccccn3)CC2)[nH]1`, the IC50 in assay [1], in assay [2], in assay [3], in assay [4] and in assay [5] was above 300 µM throughout.

Take `COc1ccc(-c2nn(CCCN3CCN(c4ccccn4)CC3)c(=S)[nH]2)cc1`: the IC50 in assay [1] is 115 µM; in assay [2], above 300 µM; in assay [3] it was above 300 µM; in assay [4], above 300 µM; in assay [5], above 300 µM.

In the case of `Fc1ccc(-c2nn(CCCN3CCN(Cc4ccccc4)CC3)c(=S)[nH]2)cc1`, the IC50 in assay [1] was above 300 µM; in assay [2], 128 µM; in assay [3], 111 µM; in assay [4], 160 µM; in assay [5] it was above 300 µM.

For `S=c1[nH]c(-c2ccc(Cl)cc2)nn1CCCN1CCN(c2cccc(Cl)c2)CC1`, the IC50 in assay [1] is 6.67 µM; in assay [2], above 300 µM; in assay [3], above 300 µM; in assay [4], above 300 µM; in assay [5], 28.2 µM.

For `CC(C)(C)c1ccc(-c2nn(CCCN3CCN(c4ccccc4)CC3)c(=S)[nH]2)cc1`, the 50% inhibitory concentration (IC50) is above 300 µM in assay [1]; above 300 µM in assay [2]; above 300 µM in assay [3]; 147 µM in assay [4]; 88.9 µM in assay [5].

Turning to `c1ccc(Cc2nnc(SCCCN3CCN(c4ccccn4)CC3)[nH]2)cc1`, the IC50 in assay [1] was above 300 µM; in assay [2] it was above 300 µM; in assay [3] it was above 300 µM; in assay [4], above 300 µM; in assay [5], 163 µM.

Turning to `Clc1cccc(-c2nnc(SCCCN3CCN(c4ncccn4)CC3)[nH]2)c1`, the IC50 was 18.5 µM in assay [1]; above 300 µM in assay [2]; above 300 µM in assay [3]; above 300 µM in assay [4]; 49.1 µM in assay [5].

Take `Cc1cccc(-c2nnc(SCCCN3CCN(c4ccccn4)CC3)[nH]2)c1`: the IC50 in assay [1] was 29.4 µM; in assay [2], above 300 µM; in assay [3], above 300 µM; in assay [4], above 300 µM; in assay [5], 52.3 µM.

With `Cc1cccc(-c2nnc(SCCCN3CCN(c4ccccc4)CC3)[nH]2)c1`, the IC50 in assay [1] was above 300 µM; in assay [2], above 300 µM; in assay [3], above 300 µM; in assay [4], 248 µM; in assay [5] it was above 300 µM.

In the case of `Fc1ccc(-c2nnc(SCCCN3CCN(Cc4ccccc4)CC3)[nH]2)cc1`, the IC50 in assay [1] was above 300 µM; in assay [2], 184 µM; in assay [3] it was 181 µM; in assay [4] it was 255 µM; in assay [5], 124 µM.

With `Clc1ccc(-c2nnc(SCCCN3CCN(c4ncccn4)CC3)[nH]2)cc1`, the IC50 in assay [1] is 105 µM; in assay [2], above 300 µM; in assay [3], above 300 µM; in assay [4], above 300 µM; in assay [5], 102 µM.

`Cc1ccc(-c2nnc(SCCCN3CCN(c4cccc(Cl)c4)CC3)[nH]2)cc1`: the IC50 in assay [1] is above 300 µM; in assay [2], above 300 µM; in assay [3], 139 µM; in assay [4], above 300 µM; in assay [5], 257 µM.

As to `CC(C)(C)c1ccc(-c2nnc(SCCCN3CCN(c4ccccc4)CC3)[nH]2)cc1`, the concentration for half-maximal inhibition (IC50) in assay [1] was above 300 µM; in assay [2], above 300 µM; in assay [3], above 300 µM; in assay [4], 97.6 µM; in assay [5] it was 49.3 µM.

Turning to `CC(C)(C)c1ccc(-c2nnc(SCCCN3CCOCC3)[nH]2)cc1`, the concentration for half-maximal inhibition (IC50) is above 300 µM in assay [1]; 287 µM in assay [2]; 155 µM in assay [3]; above 300 µM in assay [4]; 156 µM in assay [5].

In the case of `COc1cc([C@@H]2c3cc4c(cc3[C@@H](O[C@@H]3O[C@@H]5CO[C@@H](C)O[C@H]5[C@H](O)[C@H]3O)[C@H]3COC(=O)[C@H]23)OCO4)cc(OC)c1O` [ETOPOSIDE], the IC50 in assay [1] is 1.84 µM; in assay [2], 29.5 µM; in assay [5] it was 10.4 µM.
